Test results as given in a melting point compilation (Tetko et al.; mined from patent text by program, amines drawn as free bases though some values may be those of a salt).

Row | Compound | melting point [°C]
1 | CC(COc1ccc(C(N)=O)c(O)c1)NCC(O)c1ccccc1 (stereo not given) | 171 to 173
2 | C=CCN(C(=O)c1cnc(N2CC(C)(C)NC2=O)nc1N)c1cccc(C(F)(F)F)c1 | 187 to 188
3 | CC(=O)NC(=Cc1c[nH]c2cc(Cl)ccc12)C(=O)O | 225
4 | O=C1N(Cc2ccccn2)c2ccccc2C12COc1cc3[nH]ncc3cc12 (stereo not given) | 117 to 119
5 | CC(=O)NCCC1CCNCC1 | 60
6 | Nc1c(F)cc(C=O)c(F)c1Br | 132 to 133
7 | CC(=O)NC[C@H]1CN(c2ccc(-n3nccc3-c3ccncc3)c(F)c2)C(=O)O1 | 74.5 to 76.3
8 | CCC(=O)c1ccc2c(ccn2S(=O)(=O)c2ccc(C)cc2)c1 | 162 to 164
9 | COc1ccc(-c2cn[nH]c2N)cc1 | 198 to 201
10 | CC(=O)Nc1ccc(C(=O)N2CCN(CCc3ccc(Cl)cc3)CC2)cc1 | 147 to 149
11 | Nc1nc(-c2ccncc2)nc2c1c(Br)nn2C1CCCC1 | 189 to 191
12 | CCOC(=O)c1cc2cc(NC(=O)C[C@H]3O[C@H](c4cccc(OC)c4OC)c4cc(Cl)ccc4N(CC(C)(C)COC(C)=O)C3=O)ccc2[nH]1 | 200 to 201
13 | O=C(CCCCCl)Nc1nnc(SCc2ccccc2)s1 | 145 to 148
14 | Cc1cc(-c2nc3ccc(CN4CCN(C)CC4)cc3c(=O)[nH]2)cc(C)n1 | 229 to 230
15 | Cc1nc2cc(S(=O)(=O)n3c(CCCC(=O)O)cc4nc(Cl)ccc43)ccc2s1 | 173
16 | NC(CF)(Cc1cc(O)ccc1O)C(=O)O (stereo not given) | 212
17 | OC(c1ccc2cc(-c3n[nH]c4ccsc34)[nH]c2c1)(C1CC1)C1CC1 | 110 to 112
18 | CCC/C=C/c1ccc(C#CC(C)(C)O)c(F)c1 | 62
19 | CC(C)(C)OC(=O)N[C@@H](Cc1ccccc1)[C@@H](O)C[C@@H](Cc1ccccc1)c1ncn[nH]1 | 187 to 188
20 | CCOc1cccc(-c2cc3n(n2)CCc2ccccc2-3)c1 | 103 to 104
21 | Cc1c(C)c2c(c(C)c1NC(=O)CC(C)(C)C)C(c1ccc(C3CCCCC3)cc1)CO2 (stereo not given) | 146 to 148
22 | O=C1N=C(N2CCOCC2)SC1=Cc1ccc(F)c(-c2ccc(O)c(C34CC5CC(CC(C5)C3)C4)c2)c1 | 338 to 343
23 | O=C1Cc2ccnc(N3CCNCC3)c2N1 | 200 to 204
24 | OC(c1ccccc1)(c1cccc(C(F)(F)F)c1)c1ncc[nH]1 (stereo not given) | 152
25 | CCOC(=O)c1cc(N(C)S(C)(=O)=O)c(C)nc1C(=O)OCC | 90 to 93

Row | Compound | melting point [°C]
26 | COc1ccc(C(=O)Nc2ccccc2)cc1NS(=O)(=O)c1sc(NC(C)=O)nc1C | 260 to 261
27 | O=C1NCCCCC1NC(c1ccccc1)(c1ccccc1)c1ccccc1 (stereo not given) | 189
28 | O=C(Cc1ccccc1)Nc1ccccc1SCc1ccc(Cl)cc1 | 100 to 101
29 | Cc1noc(NS(=O)(=O)c2ccccc2-c2ccc(-c3ncco3)cc2CCN(C)C(=O)Cc2ccccc2)c1C | 98 to 106
30 | COc1ccc(/C(C)=C/c2ccc(C(=O)OCc3ccccc3)cc2)cc1C12CC3CC(CC(C3)C1)C2 | 230 to 240
31 | O=C(Cc1ccsc1)Nc1ncc(Cl)cc1Cl | 159 to 160
32 | IC#CCSc1ccncc1 | 140
33 | CN1C2CCCC1CC(NC(=O)c1cccc3nc(-c4ccccc4)oc13)C2 (stereo not given) | 208 to 210
34 | N=C1c2nc[nH]c2N(Cc2ccc(Cl)cc2)C2=NCCN12 | 296 to 299
35 | Clc1ccc(/C=C/C2=CCN(Cc3ccc(Cl)cc3)CC2)cc1 | 127
36 | O=C(O)C(=O)Nc1ccccc1C(=O)NC1CCN(C2CCCCC2)C1 (stereo not given) | 268 to 270
37 | CC(=O)OC1CC2=CCC3C4CCC(C(C)CCCC(C)C)C4(C)CCC3C2(C)C(O)C1O (stereo not given) | 131 to 133
38 | COc1cc(N(Cc2cncs2)c2ccc(C(=O)O)cc2)ccc1C(N)=O | 197
39 | O=C(NC1CCSCC1)c1cnccc1C(F)(F)F | 161 to 163
40 | NNC(=S)Nc1ccc2ccccc2c1 | 174 to 176
41 | O=C1C(=O)c2ccccc2C2=C1SCC1(CCN(C(=O)Cc3ccc(Cl)cc3)CC1)O2 | 120 to 125
42 | COC(=O)c1ccc(OCC2CC(=O)N(c3ccc(OCC(C)(C)O)cc3)C2)cc1 (stereo not given) | 89.5 to 90.5
43 | CC(C)(C)c1nc(C(=O)c2cccs2)nc(C(C)(C)C)c1O | 158 to 159
44 | CCN1CCCCC1c1ccccc1C=CC(=O)Nc1ccccc1 (stereo not given) | 120 to 122
45 | NC(=O)c1cc(NC(=O)c2ccccc2)ccc1SSc1ccc(NC(=O)c2ccccc2)cc1C(N)=O | 273 to 274
46 | CCCn1c(=O)c2c(nc(C=Cc3cc(OC)c(OC)cc3S(=O)(=O)O)n2C)n(CCC)c1=O | 192 to 194
47 | O=C(OCc1ccccc1)c1ccc(OC(=O)c2ccc(O)c(C34CC5CC(CC(C5)C3)C4)c2)cc1 | 164 to 165
48 | COC(=O)c1ccc(C2c3[nH]c4ccccc4c3CCN2C(=O)C=Cc2cccc(C(=O)OC)c2)cc1 (stereo not given) | 182
49 | N#Cc1nn(-c2c(Cl)cc(C(F)(F)F)cc2Cl)c(-n2ccnc2)c1S(=O)(=O)C(F)(F)F | 214 to 215
50 | O=C(O)COc1ccc(SCc2ccc(OCc3ccc(F)cc3F)cc2)c2c1CCC2 | 158 to 160

Row | Compound | melting point [°C]
51 | CCOC(=O)c1c(C(C)C)c(-c2ccc(F)cc2)cn1CC | 74 to 76
52 | CCCOC(=O)c1cc(NC(=O)c2ccccc2C)ccc1Cl | 103 to 105
53 | N#Cc1cnn2c(-c3ccc(Cl)cc3)ccnc12 | 244 to 245
54 | CCCCNC(=O)CCc1ccccc1 | 26.7 to 33.1
55 | c1csc(CNc2nccc3ccccc23)c1 | 86.5 to 87.5
56 | CC(=O)c1ccc(OCn2cc(Cl)cnc2=O)cc1 | 182
57 | CS(=O)(=O)Nn1c(=O)[nH]c2cc(C(F)(F)F)c(-n3cnc(C(F)(F)F)c3)cc2c1=O | 144 to 147
58 | c1cc(-n2ccnc2)cc(-n2cnc3cc(-c4ccco4)ccc32)c1 | 175 to 177
59 | C[C@H]1COc2c(N3CC(C)(N)C4(CC4)C3)c(F)cc3c(=O)c(C(=O)O)cn1c23 (stereo not given in full) | 268 to 270
60 | O=C(CCC(=O)N1CCCCC1c1ccccc1)c1ccc2c(c1)CCN(C(=O)C(F)(F)F)CC2 (stereo not given) | 132 to 133
61 | CC(C)(C)C(C)(C)Nc1nc(Cl)nc(NC(C)(C)C(C)(C)C)n1 | 129 to 131
62 | CCCc1ccc(C=O)n1Cc1ccc(-c2ccccc2-c2nnn[nH]2)cc1 | 68 to 71
63 | CCN(CC)C(=O)Oc1c2c(nn1-c1ccc(F)cc1)CCc1cc(F)ccc1-2 | 141 to 142
64 | COc1ccc(CN2CCc3c(cnc4[nH]ncc34)C2)cc1 | 184 to 186
65 | CC(C)C1C(=O)C(C)(C)C(=O)N1c1ccc(C#N)c(Cl)c1 (stereo not given) | 116 to 117
66 | Nc1ccc2c(c1)SC1=NCCCN12 | 186
67 | O=C(CC(=O)c1snc(Cl)c1Cl)c1ccc(O)cc1 | 224 to 227
68 | CCC[C@H](NC(=O)OCc1ccccc1)C(=O)C(N)P(=O)(OC)OC (stereo not given in full) | 82 to 84
69 | CC(COc1ccc2ccc(Oc3c(F)cc(C(F)(F)F)cc3Cl)cc2c1)=NO | 153
70 | CCOC(=O)C(=CNc1cc(C)no1)C(=O)OCC | 134 to 136
71 | COc1ccc(OC)c2c1COC(c1ncc(S(=O)(=O)c3ccc(C)cc3)o1)C2 (stereo not given) | 138 to 140
72 | OCc1nc(-c2ccccc2)ccc1Cl | 69 to 70
73 | CCOC(=O)COc1c(OC2CCCCO2)cccc1[N+](=O)[O-] (stereo not given) | 49 to 50
74 | N#CCC1CCN(c2ccc(N3C[C@@H](Cn4cc(C#N)nn4)OC3=O)cc2F)CC1 | 200 to 202
75 | CS(=O)(=O)OCCOc1ccccc1OCc1ccccc1 | 98 to 100

Row | Compound | melting point [°C]
76 | Cc1nc2ccc(OCCCN3CCC(OC(c4ccccc4)c4ccccc4)CC3)nn2n1 | 134 to 136
77 | CC(C)(C)OC(=O)NCc1ccc(-c2ccc(O)cc2)cc1 | 147 to 149
78 | OCC#Cc1ccc(F)cc1 | 32 to 33
79 | O=C(NCc1ccc(Cl)nc1)C(Cl)=NNc1ccc(C(F)(F)F)cc1 | 172 to 173
80 | CSC(=S)NCc1cc(=O)c(OC(c2ccccc2)c2ccccc2)cn1OC(c1ccccc1)c1ccccc1 | 176 to 178
81 | Nc1ccccc1NC(=O)c1ccc(NC(=O)Cc2ccccc2)cc1 | 232 to 237
82 | Oc1cccc2cnsc12 | 185 to 187
83 | CC(COc1ccc(CC(N)=O)cc1Cl)NCC(O)c1cccc(Cl)c1 (stereo not given) | 99 to 101
84 | COc1cccc(-c2cccc3nc(Nc4cc(OC)c(OC)c(OC)c4)oc23)c1 | 167 to 170
85 | [N-]=[N+]=C1C(=O)c2ccccc2-c2ccccc21 | 107 to 109
86 | CCOC(=O)C1COc2cc(C(C)=O)ccc2O1 (stereo not given) | 60
87 | CC(C)(C)CNS(=O)(=O)c1cccc(NC(=O)c2cnn3c(C(F)(F)F)cc(-c4ccc(C(F)(F)F)cc4)nc23)c1 | 231
88 | CCOC(=O)C(C)=Cc1ccc(Sc2ccncc2)c(C(F)(F)F)c1 | > 200
89 | COCCOC(=O)C1=C(C(F)F)NC(C)=C(C(=O)OC(C)C)C1c1cccc(Cl)c1Cl (stereo not given) | 127 to 128
90 | O=C(Nc1ccc(F)cc1O)c1cc(Cl)c(O)c(Cl)c1 | 223 to 224
91 | Nc1nc(N)c2c(I)nn(C3CC(O)C(CO)O3)c2n1 (stereo not given) | 154
92 | CN1Cc2ccccc2N(C)S1(=O)=O | 59 to 60
93 | NS(=O)(=O)NCC1CCc2ccccc2O1 (stereo not given) | 100 to 101
94 | NS(=O)(=O)c1ccc(-c2cn(-c3nc(-c4ccc(F)c(F)c4)cc(C(F)(F)F)n3)cn2)s1 | 228
95 | NC(=O)c1c(Cl)c(-c2cccnc2)n2c1CN(S(=O)(=O)c1ccc(C(F)(F)F)cc1)CC2 | 205 to 206
96 | CCCONC(=O)c1cc(OC)cc(Oc2cccc(C(F)(F)F)c2)n1 | 75 to 77
97 | O=C1CCC(=O)N1c1ccncc1 | 232 to 235
98 | O=C(Cc1cn(-c2ccccc2)nc1-c1ccc(Cl)cc1)NO | 168 to 169
99 | CC(=Nc1ccc(Cl)nn1)N(C)C | 73
100 | N#CC(c1cccnc1)C1CCN(C(=O)CC(NC(=O)c2cccc(OCc3ccc4ccccc4n3)c2)c2ccccc2)CC1 (stereo not given) | 91 to 97
